Test results published in paper PMC7083837 (Nature Communications, 2020).
Values joined by “and” are separate entries in the source; they are usually repeats but may differ in a detail not shown here. Equal entries are not always repeated.

Experiments:
SERT I179F = target: T1, SERT I179F (Homo sapiens, UniProt P31645, I179F); assay: [3H]IMI dissociation rate assay; format: binding
T1 construct: expressed in transfected cells; host or cells: COS-7
Description: (§1) All mutations were confirmed by DNA sequencing. The used primers were
(§2) The allosteric potency was calculated as previously described.

SERT L406E = target: T2, SERT L406E (Homo sapiens, UniProt P31645, L406E); assay: [3H]IMI dissociation rate assay; format: binding
T2 construct: expressed in transfected cells; host or cells: COS-7
T2 sequence (P31645 whole entry L406E): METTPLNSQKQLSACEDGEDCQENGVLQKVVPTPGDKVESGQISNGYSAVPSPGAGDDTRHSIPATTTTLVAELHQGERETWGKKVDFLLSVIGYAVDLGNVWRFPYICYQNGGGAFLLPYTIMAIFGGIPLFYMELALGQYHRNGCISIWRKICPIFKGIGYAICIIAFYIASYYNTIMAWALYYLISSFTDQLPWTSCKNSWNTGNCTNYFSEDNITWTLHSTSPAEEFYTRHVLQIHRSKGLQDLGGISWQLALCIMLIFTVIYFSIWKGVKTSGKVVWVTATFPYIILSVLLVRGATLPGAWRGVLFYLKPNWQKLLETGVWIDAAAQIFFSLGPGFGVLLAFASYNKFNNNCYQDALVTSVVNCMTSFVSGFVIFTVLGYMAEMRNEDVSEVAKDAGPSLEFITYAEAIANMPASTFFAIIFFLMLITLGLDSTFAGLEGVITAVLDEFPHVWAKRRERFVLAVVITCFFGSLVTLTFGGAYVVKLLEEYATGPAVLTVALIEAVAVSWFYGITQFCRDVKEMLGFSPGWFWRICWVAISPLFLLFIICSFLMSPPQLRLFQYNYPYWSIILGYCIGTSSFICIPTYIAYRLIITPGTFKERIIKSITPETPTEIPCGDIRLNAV
Description: as §1, §2

SERT R104K = target: T3, SERT R104K (Homo sapiens, UniProt P31645, R104K); assay: [3H]IMI dissociation rate assay; format: binding
T3 construct: expressed in transfected cells; host or cells: COS-7
T3 sequence (P31645 whole entry R104K): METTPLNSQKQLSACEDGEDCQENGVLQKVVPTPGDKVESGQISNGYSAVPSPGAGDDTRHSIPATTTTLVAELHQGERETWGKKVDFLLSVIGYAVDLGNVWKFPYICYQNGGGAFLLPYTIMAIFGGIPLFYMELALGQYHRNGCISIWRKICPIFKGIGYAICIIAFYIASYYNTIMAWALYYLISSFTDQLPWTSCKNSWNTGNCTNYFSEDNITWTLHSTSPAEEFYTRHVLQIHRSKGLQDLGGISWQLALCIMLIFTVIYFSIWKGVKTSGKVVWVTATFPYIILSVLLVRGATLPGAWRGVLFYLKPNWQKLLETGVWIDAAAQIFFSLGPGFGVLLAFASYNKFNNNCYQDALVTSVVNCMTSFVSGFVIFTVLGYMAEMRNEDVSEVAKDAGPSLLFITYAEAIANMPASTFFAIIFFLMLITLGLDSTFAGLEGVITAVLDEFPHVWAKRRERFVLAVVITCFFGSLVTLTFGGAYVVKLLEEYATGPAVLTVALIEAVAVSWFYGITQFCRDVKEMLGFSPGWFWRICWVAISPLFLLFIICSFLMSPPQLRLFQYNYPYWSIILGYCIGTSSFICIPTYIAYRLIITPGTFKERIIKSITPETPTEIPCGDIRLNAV
Description: as §1, §2

SERT WT = target: T4, SERT WT (Homo sapiens, UniProt P31645); assay: [3H]5-HT uptake in intact COS-7 cells; format: cell-based; set-up: 5-HT uptake: unit not given here; details: for 5-HT uptake: Fig 5B
T4 construct: expressed in transfected cells; host or cells: COS-7
T4 sequence (P31645 whole entry): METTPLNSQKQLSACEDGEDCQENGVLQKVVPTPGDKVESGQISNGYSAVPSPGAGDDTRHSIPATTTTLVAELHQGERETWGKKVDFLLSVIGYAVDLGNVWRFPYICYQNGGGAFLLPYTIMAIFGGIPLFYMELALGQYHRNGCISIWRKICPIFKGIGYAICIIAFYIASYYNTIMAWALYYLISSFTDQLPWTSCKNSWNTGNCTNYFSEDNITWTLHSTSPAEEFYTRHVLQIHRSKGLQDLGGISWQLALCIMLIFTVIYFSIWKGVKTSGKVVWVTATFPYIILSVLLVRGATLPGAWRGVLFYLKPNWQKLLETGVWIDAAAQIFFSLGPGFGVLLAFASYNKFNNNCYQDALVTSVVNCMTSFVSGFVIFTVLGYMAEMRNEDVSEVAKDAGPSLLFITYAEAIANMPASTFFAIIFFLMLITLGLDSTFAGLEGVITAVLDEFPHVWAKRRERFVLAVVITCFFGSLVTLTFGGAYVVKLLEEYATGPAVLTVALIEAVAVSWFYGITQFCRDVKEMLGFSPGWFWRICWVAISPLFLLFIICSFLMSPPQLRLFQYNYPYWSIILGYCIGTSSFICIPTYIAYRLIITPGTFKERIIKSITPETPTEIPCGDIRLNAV

SERT F556R = target: T5, SERT F556R (Homo sapiens, UniProt P31645, F556R); assay: [3H]5-HT uptake in intact COS-7 cells; format: cell-based; details: for 5-HT uptake inhibition by Lu AF60097: Fig 5A
T5 construct: expressed in transfected cells; host or cells: COS-7
T5 sequence (P31645 whole entry F556R): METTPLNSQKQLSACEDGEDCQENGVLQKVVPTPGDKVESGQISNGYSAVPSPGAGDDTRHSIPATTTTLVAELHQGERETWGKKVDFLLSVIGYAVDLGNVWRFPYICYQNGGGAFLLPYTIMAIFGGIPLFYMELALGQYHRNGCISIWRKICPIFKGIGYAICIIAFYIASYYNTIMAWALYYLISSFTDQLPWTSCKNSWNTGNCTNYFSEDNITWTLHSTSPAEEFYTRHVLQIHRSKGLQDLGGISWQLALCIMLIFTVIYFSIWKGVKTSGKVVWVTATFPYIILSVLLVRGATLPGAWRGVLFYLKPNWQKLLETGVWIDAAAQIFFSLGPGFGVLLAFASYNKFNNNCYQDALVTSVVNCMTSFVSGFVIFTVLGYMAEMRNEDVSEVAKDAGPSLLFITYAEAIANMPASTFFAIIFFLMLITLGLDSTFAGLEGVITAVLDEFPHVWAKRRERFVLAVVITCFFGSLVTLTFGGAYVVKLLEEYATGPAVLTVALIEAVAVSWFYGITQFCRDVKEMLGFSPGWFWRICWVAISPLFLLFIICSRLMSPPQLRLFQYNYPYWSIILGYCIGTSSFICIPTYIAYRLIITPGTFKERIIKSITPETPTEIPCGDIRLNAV

T1 sequence (P31645 whole entry I179F): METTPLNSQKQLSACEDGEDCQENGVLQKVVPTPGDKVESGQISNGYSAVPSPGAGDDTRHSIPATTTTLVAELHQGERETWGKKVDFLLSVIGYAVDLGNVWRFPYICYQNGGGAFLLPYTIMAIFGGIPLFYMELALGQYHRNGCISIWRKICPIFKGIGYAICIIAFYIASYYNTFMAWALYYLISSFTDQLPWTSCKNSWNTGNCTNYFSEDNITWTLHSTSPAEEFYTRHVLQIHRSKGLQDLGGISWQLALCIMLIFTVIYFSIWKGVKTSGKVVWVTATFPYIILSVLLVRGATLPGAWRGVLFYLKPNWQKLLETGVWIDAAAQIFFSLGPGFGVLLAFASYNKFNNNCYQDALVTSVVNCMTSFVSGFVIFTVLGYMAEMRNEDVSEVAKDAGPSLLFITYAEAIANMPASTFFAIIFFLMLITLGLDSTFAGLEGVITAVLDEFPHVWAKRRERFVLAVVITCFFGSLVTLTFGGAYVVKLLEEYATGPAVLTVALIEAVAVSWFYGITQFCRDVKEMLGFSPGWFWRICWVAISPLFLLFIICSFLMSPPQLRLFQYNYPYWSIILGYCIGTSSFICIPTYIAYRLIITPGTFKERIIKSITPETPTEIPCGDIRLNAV

- ΔAP (mut/WT), change in allosteric potency relative to SERT WT (SERT I179F; I179F, [^3H]IMI dissociation): 14
- [^3H]IMI dissociation relative to control (source data Fig 4B) (SERT I179F; I179F, log conc -7.817): 0.8727 and 0.9098
- IC50 (SERT I179F; SERT I179F (TM3), read-out: Lu AF60097 allosteric potency ([^3H]IMI dissociation IC50)): 440 nM
- ΔAP (mut/WT), change in allosteric potency relative to SERT WT (SERT L406E; L406E, [^3H]IMI dissociation): 21
- [^3H]IMI dissociation relative to control (source data Fig 4B) (SERT L406E; L406E, log conc -5.91): 0.3505 and 0.3638 and 0.3072
- [^3H]IMI dissociation relative to control (source data Fig 4B) (SERT L406E; L406E, log conc -6.386): 0.6157 and 0.6402 and 0.5827
- [^3H]IMI dissociation relative to control (source data Fig 4B) (SERT L406E; L406E, log conc -6.863): 0.8533 and 0.8586 and 0.8107
- [^3H]IMI dissociation relative to control (source data Fig 4B) (SERT L406E; L406E, log conc -7.34): 0.9622 and 0.9861 and 1.0073
- [^3H]IMI dissociation relative to control (source data Fig 4B) (SERT L406E; L406E, log conc -7.817): 1.016 and 1.0012 and 1.0446
- IC50 (SERT L406E; SERT L406E (EL4), read-out: Lu AF60097 allosteric potency ([^3H]IMI dissociation IC50)): 650 nM
- ΔAP (mut/WT), change in allosteric potency relative to SERT WT (SERT R104K; R104K, [^3H]IMI dissociation): 19
- [^3H]IMI dissociation relative to control (source data Fig 4B) (SERT R104K; R104K, log conc -5.91): 0.3316 and 0.2892 and 0.4871 and 0.3865
- [^3H]IMI dissociation relative to control (source data Fig 4B) (SERT R104K; R104K, log conc -6.386): 0.5872 and 0.4706 and 0.6618 and 0.5459
- [^3H]IMI dissociation relative to control (source data Fig 4B) (SERT R104K; R104K, log conc -6.863): 0.8956 and 0.6502 and 0.7387 and 0.7045
- [^3H]IMI dissociation relative to control (source data Fig 4B) (SERT R104K; R104K, log conc -7.34): 1.0439 and 0.7759 and 0.8174 and 0.7536
- [^3H]IMI dissociation relative to control (source data Fig 4B) (SERT R104K; R104K, log conc -7.817): 0.9753 and 0.7981 and 0.836 and 0.9683
- IC50 (SERT R104K; SERT R104K (TM1), read-out: Lu AF60097 allosteric potency ([^3H]IMI dissociation IC50)): 630 nM
- Vmax 5-HT (SERT WT; 10 nM Lu AF60097): 1232 ± 48 fmol/min
- Vmax 5-HT (SERT WT; 20 nM Lu AF60097): 1279 ± 64 fmol/min
- Vmax 5-HT (SERT WT; 40 nM Lu AF60097): 1007 ± 58 fmol/min
- Vmax 5-HT (SERT WT; 80 nM Lu AF60097): 1361 ± 78 fmol/min
- Vmax 5-HT (SERT WT; 160 nM Lu AF60097): 1235 ± 34 fmol/min
- Vmax 5-HT (SERT WT; 320 nM Lu AF60097): 973 ± 25 fmol/min
- Vmax 5-HT (SERT WT; 640 nM Lu AF60097): 971 ± 21 fmol/min
- inhibition at 0.027 µM (SERT WT; COS-7, read-out: Decrease (inhibition) of [^3H]5-HT uptake relative to control, IMI 4 nM, Lu AF60097 27 nM, alone or together): 5 ± 1.8%
- 5-HT uptake (SERT WT; 0.1474 µM 5HT, 640 nM AF60097): 82.89 and 76.41 and 75.6 and 73.71
- 5-HT uptake (SERT WT; 0.2395 µM 5HT, 640 nM AF60097): 119.3 and 114.2 and 108 and 121.2
- 5-HT uptake (SERT WT; 0.4844 µM 5HT, 10 nM AF60097): 585
- 5-HT uptake (SERT WT; 0.4844 µM 5HT, 320 nM AF60097): 301.6 and 284.3 and 264.9
- 5-HT uptake relative to ctrl (ctrl = 100) (SERT WT; Fig 5C, 27 nM AF60097): 100 and 97 and 96 and 91 and 88
- [^3H]5-HT uptake (in % of buffer/control) (SERT WT; IMI 4 nM, Lu AF60097 27 nM, alone or together): 95 ± 1.8%
- Ki (SERT WT; SERT WT): 220 nM
- IC50 (SERT WT; hSERT in COS-7 cells): 207 nM
- 5-HT uptake inhibition by Lu AF60097 (SERT F556R; [Lu AF60097] -5.5): 0.1354
- 5-HT uptake inhibition by Lu AF60097 (SERT F556R; [Lu AF60097] -6): 0.2671
- 5-HT uptake inhibition by Lu AF60097 (SERT F556R; [Lu AF60097] -6.5): 0.5785
- 5-HT uptake inhibition by Lu AF60097 (SERT F556R; [Lu AF60097] -7): 0.7467
- 5-HT uptake inhibition by Lu AF60097 (SERT F556R; [Lu AF60097] -7.5): 0.9156
- 5-HT uptake inhibition by Lu AF60097 (SERT F556R; [Lu AF60097] -8): 0.9992
- 5-HT uptake inhibition by Lu AF60097 (SERT F556R; [Lu AF60097] -9): 0.9608
- 5-HT uptake inhibition by Lu AF60097 (SERT F556R; [Lu AF60097] -10): 1.013
- Ki (SERT F556R; SERT F556R): 260 nM
SMILES: NC(=O)c1ccc2c(c1)CO[C@@]2(CCCN1CCC(c2ccc3ccc(=O)[nH]c3c2)CC1)c1ccc(F)cc1 [Lu AF60097, (S)-1-(4-fluorophenyl)-1-(3-(4-(2-oxo-1,2-dihydroquinolin-7-yl)piperidin-1-yl)propyl)-1,3-dihydroisobenzofuran-5-carboxamide]
- 5-HT uptake (SERT WT; 0.1474 µM 5HT, 10 nM AF60097): 289.4 and 268.7 and 257.4 and 246.6 and 314.6
- 5-HT uptake (SERT WT; 0.1474 µM 5HT, 20 nM AF60097): 295.7 and 305.6 and 246.2 and 292.1 and 271.4
- 5-HT uptake (SERT WT; 0.1474 µM 5HT, 80 nM AF60097): 149 and 175.1 and 138.2 and 177.3 and 172.8
- 5-HT uptake (SERT WT; 0.1474 µM 5HT, 160 nM AF60097): 193.5 and 184.1 and 172.4 and 177.3 and 155.3
- 5-HT uptake (SERT WT; 0.1474 µM 5HT, 320 nM AF60097): 124.2 and 120.2 and 98.55 and 160.4 and 125
- 5-HT uptake (SERT WT; 0.2395 µM 5HT, 10 nM AF60097): 401.9 and 351.5 and 378.9 and 356.9 and 437.9
- 5-HT uptake (SERT WT; 0.2395 µM 5HT, 20 nM AF60097): 431.1 and 402.3 and 370.8 and 428 and 381.2
- 5-HT uptake (SERT WT; 0.2395 µM 5HT, 80 nM AF60097): 239.4 and 237.2 and 197.1 and 278.1 and 258.3
- 5-HT uptake (SERT WT; 0.2395 µM 5HT, 160 nM AF60097): 283.1 and 275.9 and 262.8 and 254.3 and 202.5
- 5-HT uptake (SERT WT; 0.2395 µM 5HT, 320 nM AF60097): 170.4 and 178.2 and 155 and 215.5 and 193.6
- 5-HT uptake (SERT WT; 0.4844 µM 5HT, 20 nM AF60097): 624.2 and 642.2 and 563.4 and 555.8 and 512.1
- 5-HT uptake (SERT WT; 0.4844 µM 5HT, 160 nM AF60097): 469.4 and 426.6 and 404.6 and 365.9 and 356
